PMC9027910, “Synthesis and Antimycobacterial Evaluation of N-(4-(Benzyloxy)benzyl)-4-aminoquinolines” (Molecules, 2022)

Legend:
Vero cells = test: Cellular viability of Vero cells (MTT and neutral red uptake); format: cell-based; conditions: for Vero cell viability in words: 72 h at concentrations similar to MIC, MTT and neutral red; for CC50: neutral red method, 72 h
Procedure: (§1) Cellular viability was determined using two distinct methods—3-(4,5-dimethylthiazol-2-yl)-2,5-diphenyl-2H-tetrazolium bromide (MTT) and neutral red uptake (NRU). The cell lines employed in the evaluation were Vero and HepG2 cells. Both cell lines were grown with Dulbecco’s Modified Eagle Medium (DMEM-Gibco, Grand Island, NY, USA) and supplemented with 10% fetal bovine serum by Invitrogen, 1% antibiotics (penicillin and streptomycin) by Gibco, and 0.1% fungizone by Gibco. For the MTT and NRU assays, Vero (2 × 10^3 cells/well) and HepG2 (4 × 10^3 cells/well) cells were seeded in 96-well culture plates and incubated overnight. The N-(4-(benzyloxy)benzyl)-4-aminoquinolines were diluted at concentrations of 3 µM using DMSO 1% and were incubated with the cell lines for 72 h at 37 °C. In the MTT investigation, after incubation for 72 h at 37 °C under 5% CO2, the cells were incubated with MTT solution (5 mg/mL, Sigma-Aldrich, St. Louis, MO, USA) for 4 h. The formazan crystals were solubilized in 100 µL of DMSO. An EZ Read 400 microplate reader (Biochrom, Cambridge, UK) was used to measure the absorbance at 570 nm. The mean absorbance of negative control wells was established as the maximum viability and the values of treated cells were calculated as the percentage of vehicle control (1% DMSO). The precipitated purple formazan crystals were directly equivalent to the number of live cells with active mitochondrial metabolism. In the NRU investigation, after 72 h of cell incubation, PBS was used to wash the cells and 200 µL of neutral red dye solution (25 µg/mL, Sigma-Aldrich, St. Louis, MO, USA) prepared in serum-free medium was added to the plate and incubated for 3 h at 37 °C under 5% CO2. Cells were washed with PBS followed by the addition of 100 µL of desorb solution (ethanol/acetic acid/water, 50:1:49) for 30 min with smooth homogenization to extract neutral red dye from the viable cells. An EZ Read 400 microplate reader was operated to measure the absorbance at 562 nm, and the cell viability was attributed as a percentage, considering the vehicle control cell (1% DMSO) as maximum cell viability.

[1] = as above; format: cell-based; conditions: African green monkey, Vero cells; MTT method, 72 h
Procedure: as §1

M. tuberculosis H37Rv = test: Minimum inhibitory concentration (resazurin microplate); format: cell-based, Mycobacterium tuberculosis; conditions: Mycobacterium tuberculosis; M. tuberculosis H37Rv; 7 days + 48 h resazurin; highest value of three assays
[2] = format: physicochemical; conditions: buffer, 24 h, 10 µM
Procedure: The experiment was carried out by the Center for Applied Mass Spectrometry (CEMSA), São Paulo, Brazil. In brief, the test compounds (10 µM) were incubated at 37 °C for 24 h in the presence of pH-controlled buffer solution at pH 1.2 (simulating the pH of the stomach—0.1 M HCl), pH 7.4 (simulating plasma pH—phosphate buffer) and pH 9.1 (simulating intestinal pH—0.1 M NH4HCO3). Afterward, compounds were quantified by HPLC–MS/MS. Alprenolol drug was used as an analytical control (data not shown). The results were presented as the percentage, comparing the signal at time zero of the assay (100%) with the signal produced by concentrations after the incubation period.

[3] = Cellular viability of HepG2 cells (MTT and neutral red uptake); format: cell-based; conditions: human, HepG2 cells; MTT method, 72 h
Procedure: as §1

HepG2 cells = test: as above; format: cell-based; conditions: for HepG2 cell viability in words: 72 h at concentrations similar to MIC, MTT and neutral red; for CC50: neutral red method, 72 h
Procedure: as §1

in vitro = in vitro ADME; conditions: for Papp at 5 h, 10 µM: PAMPA, pH 7.4
Procedure: The experiment was carried out by the Center for Applied Mass Spectrometry (CEMSA), São Paulo, Brazil. In brief, the Parallel Artificial Membrane Permeability Assay (PAMPA) assay consists of quantifying the test compound (via HPLC–MS/MS) after an incubation period, in two solutions separated by an artificial lipid membrane. The result of this test is expressed in units of diffusion rate (permeation). The procedure comprised the following steps: (1) preparing the membrane, which contains lipids, with specific activating solutions, creating a hydrophobic surface that simulates the intestinal epithelial cell; (2) adding the test compound at a concentration of 10 µM to the donor aqueous phase (buffered pH 7.4); (3) after 5 h at room temperature, an aliquot of the solution receptor (buffered at pH 7.4) is removed, in which the compound is transported by passive diffusion, for quantification by HPLC–MS/MS.

[4] = Metabolic stability in rat liver microsomes; format: in vitro ADME; conditions: for Metabolism rate class: rat microsomes, classes by Clint; for CLint scaled / half-life: rat, microsomes
Procedure: The experiment was carried out by the Center for Applied Mass Spectrometry (CEMSA), São Paulo, Brazil. In brief, the metabolic stability assay was performed in the presence of rat liver microsomes. Compounds were incubated at 37 °C in a buffered solution containing 1 mg/mL of microsomal protein and nicotinamide adenine dinucleotide […]. The reaction was stopped at different times using acetonitrile. The compound concentration was determined by HPLC–MS/MS at each incubation time (0, 5, 15, and 30 min) and the percentage remaining versus time curve was determined. Verapamil was used as an analytical control (data not shown).

Row | Structure (SMILES) | Vero cell viability in words (Vero cells) | CC50 (Vero cells) | CC50 at 72 h [1] | melting point | MIC (M. tuberculosis H37Rv) | Chemical Stability pH 1.2, remaining compound [2] | Chemical Stability pH 7.4, remaining compound [2] | Chemical Stability pH 9.1, remaining compound [2] | CC50 at 72 h [3] | HepG2 cell viability in words (HepG2 cells) | CC50 (HepG2 cells) | Passive permeability (PAMPA) in words (in vitro) | Papp at 5 h, 10 µM (in vitro) | Metabolism rate class [4] | CLint scaled [4] | half-life [4]
1 | Cc1cc(NCc2ccc(OCc3ccc(Cl)cc3)cc2)c2cc(Br)ccc2n1 [Compound 9n, N-(4-((4-chlorobenzyl)oxy)benzyl)-6-bromo-2-methylquinolin-4-amine] | not significantly altered | > 3 µM | > 3 µM | 184 to 186 °C | 2.7 µM | 14.9% | 5.0% | 13.8% | > 3 µM | not significantly altered | > 3 µM | low permeability | 0.3 ×10⁻⁶ cm/s | moderate (moderate metabolism rates (47 ≤ Clint ≥ 16)) | 39 mL/min/kg | 19 min
2 | Cc1cc(NCc2ccc(OCc3ccc(F)cc3)cc2)c2cc(Br)ccc2n1 [Compound 9o, N-(4-((4-fluorobenzyl)oxy)benzyl) 6-bromo-2-methylquinolin-4-amine] | not significantly altered | > 3 µM | > 3 µM | 173 to 175 °C | 2.8 µM | 22.9% | 7.6% | 11.1% | > 3 µM | not significantly altered | > 3 µM | high permeability | 3 ×10⁻⁶ cm/s | high (high metabolism rates (Clint > 47)) | 56 mL/min/kg | 7.9 min
